Test results as given in patent US9993522B2, “Treatment of pain by inhibition of USP5 de-ubiquitinase” (UTI LIMITED PARTNERSHIP, priority 2012, dated 2018).
Residues, ends and D or L forms follow the SMILES beside them. *: point of attachment. Cbz = O=C(OCc1ccccc1)*

What was measured:
[1] = 10.0 μg/i.t.
Description: Injections were given to fully conscious mice using the method described by Hylden and Wilcox (Hylden & Wilcox, 1980). Animals were manually restrained, the dorsal fur of each mouse was shaved, the spinal column was arched, and a 30-gauge needle attached in a PE20 Polyethylene tube to a 25-μl Hamilton microsyringe (Hamilton, Birmingham, UK) was inserted into the subdural space between the L4 and L5 vertebrae. Correct i.t. positioning of the needle tip was confirmed by a characteristic tail-flick response of animal. Intrathecal injections of volumes between 2-10 μl were given over a period between 5-10 seconds.

CFA-injected mice = test: CFA-induced persistent inflammatory pain, mechanical hyperalgesia; settings: acute delivery, 10.0 μg/i.t.
Method: Mechanical hyperalgesia was measured using the digital plantar aesthesiometer (DPA, UgoBasile, Varese, Italy). […] Mice were allowed to acclimate for a period of at least 90 minutes. The DPA device was positioned beneath the animal, so that the filament was directly under the plantar surface of the ipsilateral hind paw. Each paw was tested three times per session.

Cav3.2 channels [2] = test: Ubiquitination state of Cav3.2 channels in CAD cells with proteasomal inhibitor (western blot densitometry); format: cell-based; settings: 5 μM MG132, CAD cells, mean±SEM
Method: Human embryonic kidney tsA-201 cells were cultured as described previously (Altier et al., 2006). Cells were transfected with calcium phosphate and used for biochemical analysis 72 hrs post-transfection. Neuronal derived CAD cells were cultured as described previously (Altier et al., 2011). These cells were transfected with Lipofectamine 2000 (Invitrogen) and used for biochemical and electrophysiological experiments 48-72 hrs post-transfection. Both tsA-201 and CAD cells were preincubated with 5 μM MG132 (MG) or 100 μM Chloroquine (Chl) overnight.
Cells were lysed in RIPA buffer (in mM; 50 Tris, 100 NaCl, 1% triton X-100, 1% NP-40, 0.2% SDS, 0.1% NaDeoxycholate, 20 NaF, 10 Na4P2O7 pyrophosphate, 10 EDTA+protease inhibitor cocktail, pH 7.5). A modified RIPA buffer (in mM; 50 Tris, 100 NaCl, 0.2% (v/v) triton X-100, 0.2% (v/v) NP-40, 10 EDTA+protease inhibitor cocktail, with or without 5 μM MG132 pH 7.5) was used to co-immunoprecipitate Cav3.2 channels with USP5 protein. Lysates from tsA-201, CAD cells and rat brain tissue were prepared by sonicating samples at 60% pulse for 10 seconds and by centrifugation at 13,000 rpm for 15 minutes at 4° C. […] Western blot quantification was performed using densitometry analysis (Quantity One-BioRad software). […]

Cav3.2 channels [3] = test: Cav3.2 ubiquitination in cultured mouse DRG neurons (immunoprecipitation, anti-ubiquitin western blot); format: cell-based; settings: 5 μM MG132 overnight

CC(C)C[C@H](NC(=O)[C@H](CCCNC(=N)N)NC(=O)[C@H](CCCNC(=N)N)NC(=O)[C@H](CC(C)C)NC(=O)[C@H](CCCNC(=N)N)NC(=O)[C@H](CCCCN)NC(=O)[C@H](CCC(=O)O)NC(=O)[C@H](CCC(=O)O)NC(=O)[C@H](CCCNC(=N)N)NC(=O)[C@H](CCCNC(=N)N)NC(=O)[C@H](CCCNC(=N)N)NC(=O)[C@H](C)NC(=O)[C@H](CCC(=O)O)NC(=O)[C@H](CCCNC(=N)N)NC(=O)[C@H](CCCNC(=N)N)NC(=O)[C@H](CCCNC(=N)N)NC(=O)[C@H](CCC(N)=O)NC(=O)[C@H](CCCNC(=N)N)NC(=O)[C@H](CCCNC(=N)N)NC(=O)[C@H](CCCCN)NC(=O)[C@H](CCCCN)NC(=O)[C@H](CCCNC(=N)N)NC(=O)CNC(=O)[C@@H](N)Cc1ccc(O)cc1)C(=O)N[C@@H](CCC(=O)O)C(=O)N[C@@H](CCCNC(=N)N)C(=O)N[C@@H](CCCNC(=N)N)C(=O)N[C@@H](CCCNC(=N)N)C(=O)N[C@@H](CCCNC(=N)N)C(=O)N[C@@H](CCCCN)C(=O)N[C@@H](C)C(=O)N[C@@H](CCC(N)=O)C(=O)O [Tat-3.2-III-IV linker peptide] (H-YGRKKRRQRRREARRREEKRLRRLERRRRKAQ-OH)
abnormal behavior ([1]; 2.5 μg/μl over 10 seconds): no abnormal behavior was observed | mice that developed shaking behavior ([1]; 5 μg/μl over 5 seconds): 3 out of 10 | time to termination of shaking behavior after injection ([1]; 5 μg/μl over 5 seconds): ≤ 15 min

COCC(=O)O[C@]1(CCN(C)CCCc2nc3ccccc3[nH]2)CCc2cc(F)ccc2[C@@H]1C(C)C [mibefradil]
pain in the CFA model (mechanical withdrawal threshold) (CFA-injected mice): significantly attenuate pain in the CFA model

CC(C)C[C@@H](C=O)NC(=O)[C@H](CC(C)C)NC(=O)[C@H](CC(C)C)NC(=O)OCc1ccccc1 [MG132] (Cbz-Leu-Leu-Leu-aldehyde)
ratio of ubiquitinated vs non-ubiquitinated channels (Ub-Cav3.2 channels/Cav3.2 channels), higher MW band (b) (Cav3.2 channels [2]; n=4): 2.80±0.5 | ratio of ubiquitinated vs non-ubiquitinated channels (Ub-Cav3.2 channels/Cav3.2 channels), lower MW band (a) (Cav3.2 channels [2]; n=5): 3.2±1.1 | Cav3.2 ubiquitination signal (Cav3.2 channels [3]): only from immunoprecipitates from cells treated with 5 μM MG132
